From patent US20220089575A1, “FARNESOID X RECEPTOR AGONISTS AND USES THEREOF” (Metacrine, Inc., priority 2017, published 2022) come the findings set out here.

The structures appear in SMILES notation. pEC50: −log10 of the molar value.

This test concerns the target T1, hFXR (Homo sapiens, UniProt Q96RI1).
T1 construct: expressed in transfected cells; host or cells: CV-1 cells
T1 sequence (Q96RI1 1-486): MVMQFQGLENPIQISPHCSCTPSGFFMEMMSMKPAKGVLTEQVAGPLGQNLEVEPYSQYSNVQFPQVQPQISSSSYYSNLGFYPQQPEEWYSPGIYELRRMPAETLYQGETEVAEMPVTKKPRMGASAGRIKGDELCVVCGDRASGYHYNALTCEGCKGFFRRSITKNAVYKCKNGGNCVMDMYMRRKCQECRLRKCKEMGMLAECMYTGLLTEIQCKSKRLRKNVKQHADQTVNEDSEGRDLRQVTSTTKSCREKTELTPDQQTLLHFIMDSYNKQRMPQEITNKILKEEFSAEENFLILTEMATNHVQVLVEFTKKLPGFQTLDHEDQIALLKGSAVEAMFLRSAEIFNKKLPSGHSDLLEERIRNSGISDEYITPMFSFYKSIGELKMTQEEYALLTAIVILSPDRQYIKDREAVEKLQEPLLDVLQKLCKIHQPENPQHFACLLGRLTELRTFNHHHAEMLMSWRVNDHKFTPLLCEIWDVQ
T1 sequence (P19793 1-462 partner): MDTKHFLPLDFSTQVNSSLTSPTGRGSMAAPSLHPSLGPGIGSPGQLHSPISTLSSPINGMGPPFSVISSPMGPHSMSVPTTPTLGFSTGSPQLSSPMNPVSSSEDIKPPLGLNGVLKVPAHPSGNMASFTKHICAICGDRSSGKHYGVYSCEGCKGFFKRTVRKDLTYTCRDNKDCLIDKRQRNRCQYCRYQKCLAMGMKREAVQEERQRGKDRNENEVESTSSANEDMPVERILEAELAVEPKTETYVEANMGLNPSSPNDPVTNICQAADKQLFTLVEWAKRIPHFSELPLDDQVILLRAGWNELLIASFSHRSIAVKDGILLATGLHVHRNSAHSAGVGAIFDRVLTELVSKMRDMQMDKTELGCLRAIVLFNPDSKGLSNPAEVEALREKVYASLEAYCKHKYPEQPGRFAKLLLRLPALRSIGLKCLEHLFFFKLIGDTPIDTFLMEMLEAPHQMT
Kind of test: In Vitro FXR Assay (TK): TK-ECRE-luc reporter in transfected CV-1 cells. It counts as cell-based. The conditions noted are these: 18 hrs, luminescence, maximum efficacy of <25% of the Fexarmine control classified as '+'. In outline: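 CV-1 cells in DMEM with 10% charcoal-stripped FBS were co-transfected with hFXR, hRXR, TK-ECRE-luc reporter and pCMX-YFP plasmids. After 18 h, compounds serially diluted in DMSO were added for a further 18 h, then cells were lysed and luminescence read.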
By pEC50 is commonly meant the EC50 on a negative log10 scale, so that one unit is a factor of ten. A lower pEC50 goes with a high EC50. In the case of `COc1ccc([C@H]2CC[C@H](CN(c3cc(-c4cnc(C5CC5)s4)ccn3)C(=O)[C@H]3CC[C@H](CC(=O)O)CC3)CC2)cc1C` [Compound 20.02, 2-(trans-4-((4-(2-Cyclopropylthiazol-5-yl)pyridin-2-yl)((trans-4-(4-methoxy-3-methylphenyl)cyclohexyl)methyl)carbamoyl)cyclohexyl)acetic acid], the pEC50 is not below 6.60. Turning to `COc1ccc([C@H]2CC[C@H](CN(c3cccc(-c4cnc(C5CC5)s4)c3)C(=O)[C@H]3CC[C@H](CC(=O)O)CC3)CC2)nc1C` [Compound 20.03, 2-(trans-4-((3-(2-Cyclopropylthiazol-5-yl)phenyl)((trans-4-(5-methoxy-6-methylpyridin-2-yl)cyclohexyl)methyl)carbamoyl)cyclohexyl)acetic acid], the pEC50 was not below 6.60. Then `COc1ccc([C@H]2CC[C@H](CN(c3cc(-c4cnc(C5CC5)s4)ccn3)C(=O)[C@H]3CC[C@H](CC(=O)O)CC3)CC2)nc1C` [Compound 20.04, 2-(trans-4-((4-(2-Cyclopropylthiazol-5-yl)pyridin-2-yl)((trans-4-(5-methoxy-6-methylpyridin-2-yl)cyclohexyl)methyl)carbamoyl)cyclohexyl)acetic acid], with not below 6.60. `COc1ccc([C@H]2CC[C@H](CN(c3cc(-c4cnc(C5CC5)s4)ccn3)C(=O)[C@H]3CC[C@H](CC(=O)O)CC3)CC2)cc1C#N` [Compound 20.05, 2-(trans-4-(((trans-4-(3-Cyano-4-methoxyphenyl)cyclohexyl)methyl)(4-(2-cyclopropylthiazol-5-yl)pyridin-2-yl)carbamoyl)cyclohexyl)acetic acid] gave a pEC50 not below 6.60. `CN(C)c1ccc([C@H]2CC[C@H](CN(c3cccc(-c4cnc(C5CC5)s4)c3)C(=O)[C@H]3CC[C@H](CC(=O)O)CC3)CC2)cn1` [Compound 20.06, 2-(trans-4-((3-(2-Cyclopropylthiazol-5-yl)phenyl)((trans-4-(6-(dimethylamino)pyridin-3-yl)cyclohexyl)methyl)carbamoyl)cyclohexyl)acetic acid] showed a negative-log EC50 (pEC50) not below 6.60. For `COc1ccc([C@H]2CC[C@H](CN(c3cccc(-c4cnc(C(C)C)s4)c3)C(=O)[C@H]3CC[C@H](CC(=O)O)CC3)CC2)nc1C` [Compound 20.07, 2-(trans-4-((3-(2-Isopropylthiazol-5-yl)phenyl)((trans-4-(5-methoxy-6-methylpyridin-2-yl)cyclohexyl)methyl)carbamoyl)cyclohexyl) acetic acid], the pEC50 was not below 6.60. `COc1ccc(C23CCC(CN(c4cc(-c5cnn(C6CC6)c5)ccn4)C(=O)[C@H]4CC[C@H](CC(=O)O)CC4)(CC2)CC3)cc1C` [Compound 20.08, trans-2-(4-((4-(1-Cyclopropyl-1H-pyrazol-4-yl)pyridin-2-yl)((4-(4-methoxy-3-methylphenyl)bicyclo [2.2.2]octan-1-yl)methyl)carbamoyl)cyclohexyl)acetic acid] gave a pEC50 not below 6.60. `COc1ccc([C@H]2CC[C@H](CN(c3cccc(-c4cnn(C5CC5)c4)c3)C(=O)[C@H]3CC[C@H](CC(=O)O)CC3)CC2)cc1C` [Compound 20.09, 2-(trans-4-((3-(1-Cyclopropyl-1H-pyrazol-4-yl)phenyl)((trans-4-(4-methoxy-3-methylphenyl)cyclohexyl)methyl)carbamoyl)cyclohexyl)acetic acid] had a negative-log EC50 (pEC50) not below 6.60. The compound `COc1ccc([C@H]2CC[C@H](CN(c3cc(-c4cnn(C5CC5)c4)ccn3)C(=O)[C@H]3CC[C@H](CC(=O)O)CC3)CC2)cc1C` [Compound 20.10, 2-(trans-4-((4-(1-Cyclopropyl-1H-pyrazol-4-yl)pyridin-2-yl)((trans-4-(4-methoxy-3-methylphenyl)cyclohexyl)methyl)carbamoyl)cyclohexyl)acetic acid] gave a pEC50 not below 6.60.

As to `COc1ccc([C@H]2CC[C@H](CN(c3cccc(-c4cnn(C5CC5)c4)c3)C(=O)[C@H]3CC[C@H](CC(=O)O)CC3)CC2)cc1C#N` [Compound 20.11, 2-(trans-4-(((trans-4-(3-Cyano-4-methoxyphenyl)cyclohexyl)methyl)(3-(1-cyclopropyl-1H-pyrazol-4-yl)phenyl)carbamoyl)cyclohexyl)acetic acid], the pEC50 was not below 6.60.

Compound `CN(C)c1ccc([C@H]2CC[C@H](CN(c3cccc(-c4cnn(C5CC5)c4)c3)C(=O)[C@H]3CC[C@H](CC(=O)O)CC3)CC2)cn1` [Compound 20.12, 2-(trans-4-((3-(1-Cyclopropyl-1H-pyrazol-4-yl)phenyl)((trans-4-(6-(dimethylamino)pyridin-3-yl)cyclohexyl)methyl)carbamoyl)cyclohexyl)acetic acid] had a pEC50 not below 6.60. On to `COc1ccc([C@H]2CC[C@H](CN(c3cccc(-c4cnn(C(C)C)c4)c3)C(=O)[C@H]3CC[C@H](CC(=O)O)CC3)CC2)nc1C` [Compound 20.13, 2-(trans-4-((3-(1-Isopropyl-1H-pyrazol-4-yl)phenyl)((trans-4-(5-methoxy-6-methylpyridin-2-yl)cyclohexyl)methyl)carbamoyl)cyclohexyl)acetic acid], for which the pEC50 is not below 6.60. Then `COc1ccc([C@H]2CC[C@H](CN(c3cccc(-c4cnn(C(C)C)c4)c3)C(=O)[C@H]3CC[C@H](CC(=O)O)CC3)CC2)cc1C` [Compound 20.14, 2-(trans-4-((3-(1-Isopropyl-1H-pyrazol-4-yl)phenyl)((trans-4-(4-methoxy-3-methylphenyl)cyclohexyl)methyl)carbamoyl)cyclohexyl)acetic acid], with not below 6.60; and `COc1ccc([C@H]2CC[C@H](CN(c3cc(-c4cnn(C(C)C)c4)ccn3)C(=O)[C@H]3CC[C@H](CC(=O)O)CC3)CC2)cc1C` [Compound 20.15, 2-(trans-4-((4-(1-Isopropyl-1H-pyrazol-4-yl)pyridin-2-yl)((trans-4-(4-methoxy-3-methylphenyl)cyclohexyl)methyl)carbamoyl)cyclohexyl)acetic acid], with not below 6.60. Consider `COc1ccc([C@H]2CC[C@H](CN(c3cccc(-c4cnn(C(C)C)c4)c3)C(=O)[C@H]3CC[C@H](CCC(=O)O)CC3)CC2)cc1C` [Compound 20.16, 3-(trans-4-((3-(1-Isopropyl-1H-pyrazol-4-yl)phenyl)((trans-4-(4-methoxy-3-methylphenyl)cyclohexyl)methyl)carbamoyl)cyclohexyl)propanoic acid], for which the pEC50 was not below 6.60. Consider `COc1ccc(C23CCC(CN(c4cc(-c5coc(C6CC6)n5)ccn4)C(=O)[C@H]4CC[C@H](CC(=O)O)CC4)(CC2)CC3)cc1C` [Compound 21, trans-2-(4-((4-(2-Cyclopropyloxazol-4-yl)pyridin-2-yl)((4-(4-methoxy-3-methylphenyl)bicyclo[2.2.2]octan-1-yl)methyl)carbamoyl)cyclohexyl) acetic acid], for which the negative-log EC50 (pEC50) was not below 6.60.

`COc1ccc([C@H]2CC[C@H](CN(c3cc(-c4coc(C5CC5)n4)ccn3)C(=O)[C@H]3CC[C@H](CC(=O)O)CC3)CC2)cc1C` [Compound 21.01, 2-(trans-4-((4-(2-Cyclopropyloxazol-4-yl)pyridin-2-yl)((trans-4-(4-methoxy-3-methylphenyl)cyclohexyl)methyl)carbamoyl)cyclohexyl)acetic acid] had a pEC50 not below 6.60.

With `COc1ccc([C@H]2CC[C@H](CN(c3cccc(-c4coc(C5CC5)n4)c3)C(=O)[C@H]3CC[C@H](CC(=O)O)CC3)CC2)cc1C` [Compound 21.02, 2-(trans-4-((3-(2-Cyclopropyloxazol-4-yl)phenyl)((trans-4-(4-methoxy-3-methylphenyl)cyclohexyl)methyl)carbamoyl)cyclohexyl)acetic acid], the pEC50 was not below 6.60. Then `COc1ccc([C@H]2CC[C@H](CN(c3cccc(-c4coc(C5CC5)n4)c3)C(=O)[C@H]3CC[C@H](CC(=O)O)CC3)CC2)nc1C` [Compound 21.03, 2-(trans-4-((3-(2-Cyclopropyloxazol-4-yl)phenyl)((trans-4-(5-methoxy-6-methylpyridin-2-yl)cyclohexyl)methyl)carbamoyl)cyclohexyl) acetic acid], with not below 6.60. `COc1ccc([C@H]2CC[C@@H](CN(c3cccc(-c4coc(C5CC5)n4)c3)C(=O)[C@H]3CC[C@H](CC(=O)O)CC3)CC2)nc1C` [Compound 21.04, 2-(trans-4-((3-(2-Cyclopropyloxazol-4-yl)phenyl)((cis-4-(5-methoxy-6-methylpyridin-2-yl)cyclohexyl)methyl)carbamoyl)cyclohexyl) acetic acid] gave a pEC50 not above 6.00.
